Reference: publication PMC9456425, “Aminopeptidase N Inhibitors as Pointers for Overcoming Antitumor Treatment Resistance” (International Journal of Molecular Sciences, 2022)
Like-named read-outs stand apart in the source and are kept apart here.

How the values were obtained:
[1] = molecular target: T1, APN (Microsomal Leucine aminopeptidase from porcine kidney EC 3.4.11.2) (Sus scrofa, UniProt P15145); test: APN inhibitory activity, spectrophotometry with L-leucine-p-nitroanilide; type: biochemical
T1 construct: Microsomal Leucine aminopeptidase from porcine kidney EC 3.4.11.2, Type IV-S, ammonium sulfate suspension; purchased Sigma-Aldrich; host or cells: porcine kidney (tissue-derived, microsomal)
T1 sequence (P15145 1-963): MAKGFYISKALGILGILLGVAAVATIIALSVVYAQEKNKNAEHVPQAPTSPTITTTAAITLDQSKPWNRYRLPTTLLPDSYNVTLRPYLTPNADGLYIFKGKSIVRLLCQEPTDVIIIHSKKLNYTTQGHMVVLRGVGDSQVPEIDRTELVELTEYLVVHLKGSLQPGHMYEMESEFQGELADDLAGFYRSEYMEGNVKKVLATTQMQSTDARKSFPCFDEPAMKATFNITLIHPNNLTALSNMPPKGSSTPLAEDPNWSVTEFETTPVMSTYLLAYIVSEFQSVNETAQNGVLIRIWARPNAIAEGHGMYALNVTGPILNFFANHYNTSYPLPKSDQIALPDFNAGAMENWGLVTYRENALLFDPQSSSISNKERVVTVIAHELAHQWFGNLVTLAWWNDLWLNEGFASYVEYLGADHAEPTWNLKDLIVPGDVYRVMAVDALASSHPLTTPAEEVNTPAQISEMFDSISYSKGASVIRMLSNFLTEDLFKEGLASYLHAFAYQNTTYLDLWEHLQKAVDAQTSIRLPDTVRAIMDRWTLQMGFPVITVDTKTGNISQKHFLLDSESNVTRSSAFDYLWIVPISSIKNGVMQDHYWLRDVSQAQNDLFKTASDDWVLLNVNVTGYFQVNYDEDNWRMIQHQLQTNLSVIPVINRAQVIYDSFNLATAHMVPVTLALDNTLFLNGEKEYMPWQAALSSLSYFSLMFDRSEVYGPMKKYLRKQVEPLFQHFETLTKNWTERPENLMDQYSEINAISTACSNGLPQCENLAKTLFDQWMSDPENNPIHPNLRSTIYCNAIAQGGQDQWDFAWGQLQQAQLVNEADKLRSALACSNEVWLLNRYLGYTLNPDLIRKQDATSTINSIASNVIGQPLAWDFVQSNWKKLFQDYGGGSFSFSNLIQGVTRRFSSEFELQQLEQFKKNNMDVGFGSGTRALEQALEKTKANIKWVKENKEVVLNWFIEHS
Procedure: APN inhibitory activity was determined using a standardized spectrophotometry protocol using L-leucine-p-nitroanilide as a chromogenic substrate for APN. Measurements were performed in triplicate at 405 nm at a Cytation 3 well-plate reader.
In some compounds, solubility problems occurred, which complicated the inhibition activity determination. We overcame these either by the use of cosolvents or by an alternative HPLC approach. The details are summarized in the Supplementary Materials.
IC50 values against enzyme APN were determined using L-Leucine-p-nitroanilide (Sigma-Aldrich, Darmstadt, Germany) as the substrate and Microsomal Leucine aminopeptidase from porcine kidney EC 3.4.11.2, Type IV-S, ammonium sulfate suspension, 10–40 units/mg protein (Sigma-Aldrich, Darmstadt, Germany). The assay was performed by a Cytation 3 Cell Imaging Multi-Mode Reader (BioTek Instruments, Inc., Winooski, VT, USA) with appropriate Gen-5 software in 96-well plates. A 0.02 mol/L TRIS-HCl buffer solution at pH 7.5 was used as the assay buffer. All tested compounds were dissolved in TRIS-HCl buffer solution and compounds with poor solubility were dissolved in a small amount of DMSO or NMP used as a cosolvent. The assay mixture, which contained a variable amount of inhibitor solution (from 0 up to 80 μL), 10 μL of the enzyme solution, 5 μL of the substrate solution, and the assay buffer adjusted to 200 μL, was incubated at 37 °C for 40 min with short orbital shaking for 10 s. The hydrolysis of the substrate was monitored by the optical photometric method of absorbance in the visible and ultraviolet regions at a wavelength of 405 nm. The enzyme activity inhibitory rate was calculated from the measures of absorbance. The results of the 50% inhibitory activity of the enzyme (IC50) were determined through a regression analysis of the concentration/absorbance data by GraFit 5 software (Erithacus Software Ltd., East Grinstead, UK).

THP-1 cells = test: WST-1 analysis of cell proliferation, THP-1; type: cell-based, human; details: for Proliferation of control: 48 h
Procedure: (§1) The results are shown in Table 4, Figure 2, and the Supplementary Materials.
(§2) A human monocytic leukemia cell line (THP-1), human breast adenocarcinoma cells (MCF-7), and human prostate cancer (DU-145) cell line were obtained from ATCC. THP-1 and DU-145 cells were cultivated in an RPMI 1640 culture medium and MCF-7 cells were cultivated in a DMEM medium, both supplemented with the antibiotic solution (100 U/mL of penicillin, 100 µg/mL of streptomycin) and 10% FBS. Cells were maintained in a humidified incubator with 5% CO2 at 37 °C and were regularly tested for the presence of mycoplasma contamination.
(§3) THP-1, MCF-7, and DU-145 cells were seeded in 96-well plates. Adherent cell lines were allowed to attach to the wells for 24 h. Cells were then treated with various concentrations of tested compounds to reach the final concentrations ranging between 1 µM and 100 µM and were incubated for 48 h. Cell proliferation was determined using Cell Proliferation Reagent WST-1 (2-(4-iodophenyl)-3-(4-nitrophenyl)-5-(2,4-disulfophenyl)-2H-tetrazolium) (Roche Diagnostics, Mannheim, Germany), as previously described. WST-1 analysis was performed in three independent experiments, with each condition tested in triplicate. The IC50 values were determined using the nonlinear regression four-parameter logistic model using GraphPad Prism 5.00 software (GraphPad Software, San Diego, CA, USA). Statistical significance between the values was assessed by one-way analysis of variance (ANOVA) paired with Dunnett’s post hoc test using GraphPad Prism 5.00 software (GraphPad Software, San Diego, CA, USA) at levels of * p < 0.05, ** p < 0.01, and *** p < 0.001.

MCF-7 cells = test: WST-1 analysis of cell proliferation, MCF-7; type: cell-based, human; details: for Proliferation of control: 48 h
Procedure: as §1, §2, §3

DU-145 cells = test: WST-1 analysis of cell proliferation, DU-145; type: cell-based, human; details: for Proliferation of control: 48 h
Procedure: as §1, §2, §3

[2] = DMSO as a cosolvent, read-out: IC50 Experimental
[3] = logarithm of IC50 in µmol/L, read-out: Log IC50 Experimental (converted)
[4] = TRIS-HCl buffer pH 7.5, 37 °C, 40 min, no cosolvent noted, read-out: IC50 Experimental
[5] = NMP as a cosolvent, read-out: IC50 Experimental

Compound `CCN(CC)CC(=O)Nc1ccc(C(C)=O)cc1` [14-2-1] has an IC50 [1, 2] of 366 µM and an IC50 [1, 3] of 366 µM.

For `CC(=O)c1ccc(NC(=O)CN2CCCCC2)cc1` [14-6-1], the IC50 [1, 4] was 173 µM.

With `CC(=O)c1ccc(NC(=O)CN2CCOCC2)cc1` [14-8-1] the IC50 [1, 4] was 425 µM.

In the case of `CC(=O)c1ccc(NC(=O)CN2CCN(Cc3ccccc3)CC2)cc1` [14-10-1], the IC50 [1, 2] is reported as 427 µM.

In the case of `CC(=NNC(N)=S)c1ccccc1NC(=O)CN1CCCCC1` [22-6-1], the IC50 [1, 4] is reported as 778 µM.

Compound `CC(=NNC(N)=S)c1ccccc1NC(=O)CN1CCCCCC1` [22-7-1] has an IC50 [1, 4] of 169 µM and an IC50 [1, 3] of 169 µM.

With `CCCN(CCC)CC(=O)Nc1ccc(C(C)=NNC(N)=S)cc1` [24-3-1] the IC50 [1, 4] was 1270 µM and the IC50 [1, 3] was 1270 µM.

With `CCCCN(CCCC)CC(=O)Nc1ccc(C(C)=NNC(N)=S)cc1` [24-4-1] the IC50 [1, 5] was 1680 µM and the IC50 [1, 3] was 1680 µM.

For `CC(=NNC(N)=S)c1ccc(NC(=O)CN2CCCC2)cc1` [24-5-1], the IC50 [1, 5] was 35.6 µM and the IC50 [1, 3] was 35.6 µM.

`CC(=NNC(N)=S)c1ccc(NC(=O)CN2CCCCC2)cc1` [24-6-1] gave an IC50 [1, 5] of 1550 µM and an IC50 [1, 3] of 1550 µM.

Work on `CC(=NNC(N)=S)c1ccc(NC(=O)CN2CCCCCC2)cc1` [24-7-1] yielded an IC50 [1, 4] of 44.1 µM and an IC50 [1, 3] of 44.1 µM.

`CC(=NNC(N)=S)c1ccc(NC(=O)CN2CCOCC2)cc1` [24-8-1, 4-[(morpholine-4-yl)acetamido]acetophenone thiosemicarbazone] showed an IC50 [1, 3] of 6.79 µM.

With `CC(=NNC(N)=O)c1ccc(NC(=O)CN2CCCCC2)cc1` [34-6-1, 4-[2-(piperidine-1-yl)acetamido]acetophenone semicarbazone] the IC50 [1, 4] was 18.4 µM, the IC50 [1, 3] was 18.4 µM and the IC50 (THP-1 cells; Homo sapiens, THP-1, 48 h incubation) was greater than 100 µM. The Proliferation of control (THP-1 cells; THP-1, 1 μmol/l) was 97.78%, the Proliferation of control (THP-1 cells; THP-1, 5 μmol/l) was 97.58% and the Proliferation of control (THP-1 cells; THP-1, 10 μmol/l) was 93.87%. For the same compound, the Proliferation of control (THP-1 cells; THP-1, 30 μmol/l) was 86.64%, the Proliferation of control (THP-1 cells; THP-1, 50 μmol/l) was 73.78% and the Proliferation of control (THP-1 cells; THP-1, 75 μmol/l) was 71.38%. It also gave a Proliferation of control (THP-1 cells; THP-1, 100 μmol/l) of 69.17%, an IC50 (MCF-7 cells; Homo sapiens, MCF7, MCF-7, 48 h incubation) greater than 100 µM and a Proliferation of control (MCF-7 cells; MCF-7, 1 μmol/l) of 100.09%. The Proliferation of control (MCF-7 cells; MCF-7, 5 μmol/l) was 96.80%, the Proliferation of control (MCF-7 cells; MCF-7, 10 μmol/l) was 97.62% and the Proliferation of control (MCF-7 cells; MCF-7, 30 μmol/l) was 96.30%. The Proliferation of control (MCF-7 cells; MCF-7, 50 μmol/l) was 99.57%, the Proliferation of control (MCF-7 cells; MCF-7, 75 μmol/l) was 85.41% and the Proliferation of control (MCF-7 cells; MCF-7, 100 μmol/l) was 81.17%. The Proliferation of control (DU-145 cells; DU-145, 1 μmol/l) was 98.33%, the Proliferation of control (DU-145 cells; DU-145, 5 μmol/l) was 98.26% and the Proliferation of control (DU-145 cells; DU-145, 10 μmol/l) was 97.24%. The Proliferation of control (DU-145 cells; DU-145, 30 μmol/l) was 97.25%, the Proliferation of control (DU-145 cells; DU-145, 50 μmol/l) was 96.59% and the Proliferation of control (DU-145 cells; DU-145, 75 μmol/l) was 99.61%. For the same compound, the Proliferation of control (DU-145 cells; DU-145, 100 μmol/l) was 99.25%, the “antiproliferative effect (in words)” value (DU-145 cells; DU-145, no APN expression) was “did not affect proliferation at all” and the IC50 (DU-145 cells; Homo sapiens, DU-145, 48 h incubation) was greater than 100 µM.

Work on `CC(=NNC(N)=O)c1ccc(NC(=O)CN2CCOCC2)cc1` [34-8-1] yielded an IC50 [1, 4] of 1640 µM, an IC50 [1, 3] of 1640 µM and a melting point of 231.1 to 231.8 °C.
